Experimental data as given in ChEMBL document CHEMBL6109040, “Tyrosine kinase 2 inhibitors: Synthesis and applications in the treatment of autoimmune diseases” (Eur J Med Chem, 2025).

Columns and labels:
[1] = biological target: T1, Tyrosine-protein kinase JAK1 (Homo sapiens, UniProt P23458); test: Binding affinity to recombinant human JAK1 JH2 (553 to 856 residues) pseudokinase domain assessed as inhibition constant by fluorescence polarization assay
[2] = biological target: T1, Tyrosine-protein kinase JAK1; test: Inhibition of JAK1 (unknown origin)
[3] = Inhibition of IL-12 induced IFNgamma production in human NK92 cells; format: functional, cell-based, NK-92
[4] = biological target: T2, Non-receptor tyrosine-protein kinase TYK2 (Homo sapiens, UniProt P29597); test: Binding affinity to TYK2 JH2 (556 to 888 residues) pseudokinase domain (unknown origin) assessed as dissociation constant by KINOMEscan assay
T2 sequence (P29597 whole entry, the tested form may be a part): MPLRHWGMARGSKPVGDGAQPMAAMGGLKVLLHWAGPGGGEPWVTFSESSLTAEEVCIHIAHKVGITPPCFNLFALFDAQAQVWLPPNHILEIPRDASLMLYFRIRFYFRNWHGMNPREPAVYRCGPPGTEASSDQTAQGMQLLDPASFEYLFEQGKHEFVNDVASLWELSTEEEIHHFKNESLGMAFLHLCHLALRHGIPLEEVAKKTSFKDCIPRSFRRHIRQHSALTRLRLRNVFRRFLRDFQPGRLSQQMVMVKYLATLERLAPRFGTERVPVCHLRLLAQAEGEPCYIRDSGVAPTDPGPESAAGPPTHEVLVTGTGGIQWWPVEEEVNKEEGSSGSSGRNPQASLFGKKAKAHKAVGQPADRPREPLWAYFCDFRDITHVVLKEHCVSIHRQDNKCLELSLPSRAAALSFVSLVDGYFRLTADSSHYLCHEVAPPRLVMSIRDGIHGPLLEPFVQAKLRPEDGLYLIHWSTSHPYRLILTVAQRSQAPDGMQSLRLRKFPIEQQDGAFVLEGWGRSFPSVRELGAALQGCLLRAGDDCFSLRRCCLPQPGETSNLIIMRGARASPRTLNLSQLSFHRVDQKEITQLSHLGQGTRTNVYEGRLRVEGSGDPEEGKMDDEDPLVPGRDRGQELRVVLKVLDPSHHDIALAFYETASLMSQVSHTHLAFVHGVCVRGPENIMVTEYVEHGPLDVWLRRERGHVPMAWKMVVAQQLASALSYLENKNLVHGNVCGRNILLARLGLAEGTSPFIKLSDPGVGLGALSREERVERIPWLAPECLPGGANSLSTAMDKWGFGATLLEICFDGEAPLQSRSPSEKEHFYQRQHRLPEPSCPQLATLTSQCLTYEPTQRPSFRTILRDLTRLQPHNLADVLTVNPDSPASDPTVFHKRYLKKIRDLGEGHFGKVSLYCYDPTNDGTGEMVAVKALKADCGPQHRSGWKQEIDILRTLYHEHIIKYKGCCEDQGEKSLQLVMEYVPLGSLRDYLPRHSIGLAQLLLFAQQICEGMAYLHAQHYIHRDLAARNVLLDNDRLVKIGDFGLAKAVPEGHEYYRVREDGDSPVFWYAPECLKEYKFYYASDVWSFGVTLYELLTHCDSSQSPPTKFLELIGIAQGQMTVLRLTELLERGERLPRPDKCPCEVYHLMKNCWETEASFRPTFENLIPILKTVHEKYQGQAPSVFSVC

[5] = Inhibition of IFNalpha-induced STAT5 phosphorylation in human PBMC cells; format: cell-based
[6] = biological target: T2, Non-receptor tyrosine-protein kinase TYK2; test: Binding affinity to recombinant human TYK2 JH2 (564 to 876 residues) pseudokinase domain assessed as dissociation constant by fluorescence polarization assay
[7] = biological target: T2, Non-receptor tyrosine-protein kinase TYK2; test: Inhibition of TYK2 JH2 pseudokinase domain (unknown origin) by TR-FRET assay
[8] = biological target: Tyrosine-protein kinase JAK2 (Homo sapiens, UniProt O60674); test: Binding affinity to JAK2 […] pseudokinase domain (unknown origin) assessed as dissociation constant by TR-FRET assay
Chain of Tyrosine-protein kinase JAK2 (O60674 whole entry, the tested form may be a part): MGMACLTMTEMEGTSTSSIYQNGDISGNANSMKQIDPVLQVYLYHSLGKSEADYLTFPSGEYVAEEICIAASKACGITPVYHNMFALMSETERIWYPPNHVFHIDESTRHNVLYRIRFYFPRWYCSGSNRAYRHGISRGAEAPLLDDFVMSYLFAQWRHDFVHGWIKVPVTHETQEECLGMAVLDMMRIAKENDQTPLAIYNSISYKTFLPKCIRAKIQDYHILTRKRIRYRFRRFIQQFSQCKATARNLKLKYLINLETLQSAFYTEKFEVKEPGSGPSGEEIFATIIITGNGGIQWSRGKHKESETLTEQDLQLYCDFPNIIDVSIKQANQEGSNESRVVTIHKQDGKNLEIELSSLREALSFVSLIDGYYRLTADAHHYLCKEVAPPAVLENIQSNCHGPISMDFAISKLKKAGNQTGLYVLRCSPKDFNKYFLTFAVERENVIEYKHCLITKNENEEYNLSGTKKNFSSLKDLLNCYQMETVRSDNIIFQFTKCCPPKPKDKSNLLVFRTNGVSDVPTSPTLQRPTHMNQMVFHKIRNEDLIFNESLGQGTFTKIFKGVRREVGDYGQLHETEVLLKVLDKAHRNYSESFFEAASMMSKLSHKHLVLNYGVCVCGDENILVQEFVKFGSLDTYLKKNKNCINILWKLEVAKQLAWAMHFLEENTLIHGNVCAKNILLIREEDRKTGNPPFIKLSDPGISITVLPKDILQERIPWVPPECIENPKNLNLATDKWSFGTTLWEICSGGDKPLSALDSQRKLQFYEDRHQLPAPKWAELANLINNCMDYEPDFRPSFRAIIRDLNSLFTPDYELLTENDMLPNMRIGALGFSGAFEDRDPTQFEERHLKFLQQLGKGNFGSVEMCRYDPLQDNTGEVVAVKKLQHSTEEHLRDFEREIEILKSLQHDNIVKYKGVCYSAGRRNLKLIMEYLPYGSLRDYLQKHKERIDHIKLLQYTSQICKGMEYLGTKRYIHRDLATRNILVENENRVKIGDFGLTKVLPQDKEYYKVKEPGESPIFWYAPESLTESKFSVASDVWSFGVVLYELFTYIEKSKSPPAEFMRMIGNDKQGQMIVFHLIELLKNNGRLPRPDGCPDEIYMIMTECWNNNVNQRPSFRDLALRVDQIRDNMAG

[9] = Cmax in BALB/c mouse at 5 mg/kg, po by LC-MS/MS analysis; format: ADME, organism-based; settings: in vivo
[10] = AUC in BALB/c mouse at 5 mg/kg, po by LC-MS/MS analysis; format: ADME, organism-based; settings: in vivo

T1 sequence (P23458 whole entry, the tested form may be a part): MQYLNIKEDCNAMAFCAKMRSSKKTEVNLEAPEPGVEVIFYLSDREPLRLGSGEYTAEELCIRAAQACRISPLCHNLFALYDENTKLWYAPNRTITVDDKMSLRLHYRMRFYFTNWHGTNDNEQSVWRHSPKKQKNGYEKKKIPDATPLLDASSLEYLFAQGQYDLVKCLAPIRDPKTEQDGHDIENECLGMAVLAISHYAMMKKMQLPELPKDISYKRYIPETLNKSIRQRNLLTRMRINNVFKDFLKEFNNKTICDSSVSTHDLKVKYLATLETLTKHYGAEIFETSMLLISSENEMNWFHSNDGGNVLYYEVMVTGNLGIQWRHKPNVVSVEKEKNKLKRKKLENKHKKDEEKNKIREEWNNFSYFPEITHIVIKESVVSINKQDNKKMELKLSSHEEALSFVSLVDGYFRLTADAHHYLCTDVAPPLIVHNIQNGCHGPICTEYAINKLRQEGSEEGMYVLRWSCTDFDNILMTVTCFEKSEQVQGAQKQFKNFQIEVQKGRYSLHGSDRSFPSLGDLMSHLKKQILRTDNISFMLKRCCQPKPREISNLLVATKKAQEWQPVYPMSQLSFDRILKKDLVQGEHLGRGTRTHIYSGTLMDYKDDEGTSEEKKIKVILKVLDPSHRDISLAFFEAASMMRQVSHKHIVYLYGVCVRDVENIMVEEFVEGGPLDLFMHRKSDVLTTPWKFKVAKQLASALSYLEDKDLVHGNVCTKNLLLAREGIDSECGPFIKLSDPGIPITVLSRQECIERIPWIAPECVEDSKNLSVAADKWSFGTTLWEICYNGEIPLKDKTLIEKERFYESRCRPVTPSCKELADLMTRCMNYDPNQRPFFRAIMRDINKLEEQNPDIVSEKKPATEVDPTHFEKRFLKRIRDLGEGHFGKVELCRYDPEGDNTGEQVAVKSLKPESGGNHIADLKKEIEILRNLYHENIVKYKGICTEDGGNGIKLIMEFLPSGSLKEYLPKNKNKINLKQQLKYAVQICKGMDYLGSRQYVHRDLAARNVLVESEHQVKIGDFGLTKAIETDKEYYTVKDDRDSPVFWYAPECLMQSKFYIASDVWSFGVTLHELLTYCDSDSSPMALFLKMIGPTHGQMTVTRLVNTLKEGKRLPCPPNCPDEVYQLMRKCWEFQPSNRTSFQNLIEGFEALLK

## CO[C@@]1(c2cc(C)cc(-n3cc(C4CC4)c4cnc(NC(C)=O)cc43)n2)CCOC1
[1]
  Ki: > 10000 nM

## CNC(=O)c1nnc(NC(=O)N2CCC2)cc1Nc1cccc(-c2ncn(C)n2)c1OC
[2]
  IC50: 5900 nM

## NC(=O)c1nnc(-c2c(F)cccc2F)cc1Nc1ccc(N2CCOCC2)cn1
[3]
  IC50: 80 nM

## CNc1cc2nn3c(cnc13)C(=O)N[C@H](C)COCc1ccc(OC)c(c1)N2
[4]
  Kd: 0.022 nM
[5]
  IC50: 1.7 nM
[6]
  Kd: 0.023 nM

## CC(=O)Nc1cc(Nc2cccc(S(C)(=O)=O)n2)c(-c2ccccn2)cn1
[3]
  IC50: 0.243 nM

## CNC(=O)c1cnc2cc1Nc1cc(cc(-c3ccn(C)n3)c1OC)CCOCc1cccc(n1)N2
[7]
  IC50: < 1 nM
[8]
  Kd: > 10000 nM

## [2H]C([2H])([2H])N1Cc2nc(NC(=O)C3CC3)cc(Nc3cccc(-c4ncn(C)n4)c3OC)c2C1=O
[9]
  Cmax: 1160 ng/mL
[10]
  AUC: 3650 ng·h/mL
